In data set [1] the test system is HBsAg. In words: HBsAg inhibition in HepG2.2.15 culture supernatant (ELISA). In kind it is cell-based, HBV. Particulars: read-out: Activity in HBsAg inhibition, EC50. How it is done:
Test method: HepG2.2.15 cell line was seeded into 96-well plates at 1.5×10^4 cells/well. On the following day, the cells were treated with a three-fold serial dilution series of the compounds at eight concentration points, and 2 duplicate wells were determined in parallel. The final DMSO concentration in the culture solution was 0.5%. On the fifth day, the culture solution was replaced with fresh solution containing the compounds. On the eighth day, the culture supernatant was collected and the HBsAg in the culture supernatant was detected by ELISA. The percent inhibition was calculated with respect to the blank control.
(In general: In an ELISA, binding on a coated surface is turned into a signal by an enzyme label.)

The nature of data set [2]: Rat PK study (single IV and PO dose, plasma LC-MS/MS). The class given is in vivo, S-D rats. To be noted: for F / AUC(0-t) / clearance / half-life / Vd / Cmax / Tmax: S-D rats; for F: PO 10 mg/kg vs IV 2 mg/kg; for AUC(0-t) / clearance / half-life / Vd / Cmax / Tmax: Sprague-Dawley (S-D), rat, plasma; for Vd: read-out: Vdss. The protocol:
Preparation of intravenous injection formulation: accurately weighing 2-3 mg of a sample, adding appropriate amount of N,N-dimethylacetamide (DMA), vortex oscillating to completely dissolve the solid matter; adding an appropriate volume of 30% Solutol HS-15 aqueous solution, vortex oscillating and then adding saline, so that DMA: 30% Solutol HS-15:saline=20:20:60 (v/v/v), vortex oscillating the liquid to mix the liquid evenly, and filtering to obtain a pharmaceutical preparation of a concentration of 0.4 mg·mL^−1.
Preparation of oral formulation: accurately weighing 10 mg of a sample, adding an appropriate volume of 0.5% CMC-Na aqueous solution, vortex oscillating and ultrasounding to mix the liquid evenly to obtain a pharmaceutical preparation of a concentration of 1 mg·mL^−1.
The formulations were freshly prepared on the day of administration, and samples were reserved and taken for the determination of the actual concentration.
S-D rats of Group A were given a single intravenous injection (IV) of 2 mg·kg^−1, respectively; S-D rats of Group B were given a single gavage administration (PO) of 10 mg·kg^−1, respectively. Approximately 0.15 mL of blood sample will was collected via jugular vein into EDTA-K2 tubes at the designated time points of pre-dose, and 5 min (IV only), 15 min, 30 min, 1 h, 2 h, 4 h, 8 h, 12 h and 24 h post dose. All of the whole blood samples were centrifuged for 10 min (at 5500 rpm) to obtain plasma samples, which were stored at a refrigerator below −30˜−10° C. Concentrations of compounds in the plasma samples were analyzed using a LC-MS/MS method. The pharmacokinetic parameters were calculated using non-compartment model in Pharsight Phoenix 7.0 software. See Tables 2a and 2b for the results.

[3] abbreviates: Hepatitis B virus, HepG2.2.15, 192 h.

By pEC50 is commonly meant the EC50 on a negative log10 scale, so that one unit is a factor of ten. Usually AUC(0-t) stands for the area under the concentration-time curve up to a stated or last time point. Usually half-life stands for the time in which the quantity being followed falls by half. Read a high half-life as slow decline. For orientation: Cmax means the maximum level reached in the sampled fluid or tissue. As a reminder, the Tmax is the time at which the peak concentration occurs.

pEC50: −log10 of the molar value. Read-outs that look alike come from different tables or passages of the source.

For `COc1cc2c(cc1OC1CCCC1)C[C@@H](C(C)C)n1cc(C(=O)O)c(=O)cc1-2` [Compound I-10, (S)-9-(cyclopentyloxy)-6-isopropyl-10-methoxy-2-oxo-6,7-dihydro-2H-pyrido[2,1-α]isoquinoline-3-carboxylic acid], in data set [1] (setting [3]), the pEC50 is 8.52. Besides, in data set [2], the F is reported as 11.7%. In addition, in data set [2] (IV 2 mg/kg), the exposure AUC(0-t) came to 1490 ng·h/mL, the clearance worked out at 22.7 mL/min/kg, the half-life is 0.88 h and the Vd was found to be 1.41 L/kg. In data set [2] (PO 10 mg/kg), the AUC(0-t) was found to be 869 ng·h/mL, the highest concentration (Cmax) is 265 ng/mL, the Tmax amounted to 1 h and the half-life is 1.3 h.
As to `COCC1(COc2cc3c(cc2OC)-c2cc(=O)c(C(=O)O)cn2[C@H](C(C)C)C3)CC1` [Compound I-6, (S)-6-isopropyl-10-methoxy-9-((1-(methoxymethyl)cyclopropyl)methoxy)-2-oxo-6,7-dihydro-2H-pyrido[2,1-α]isoquinoline-3-carboxylic acid], the pEC50 in data set [1] (setting [3]) is 8.50. The compound further gave a F in data set [2] of 45.8%. For the same compound, in data set [2] (IV 2 mg/kg), the area under the curve AUC(0-t) is 1020 ng·h/mL, the clearance was found to be 33.6 mL/min/kg, the half-life was 0.71 h and the Vd turned out to be 1.74 L/kg. Also, in data set [2] (PO 10 mg/kg), the AUC(0-t) was determined as 2310 ng·h/mL, the concentration peaked (Cmax) at 1490 ng/mL, the Tmax came out at 0.58 h and the half-life is 1.9 h. For the same compound, the “PK properties (overall judgement)” value in data set [2] (combining PK data of IV and PO) is recorded as “good PK properties”.
`COCC1(COc2cc3c(cc2OC)-c2cc(=O)c(C(=O)O)cn2[C@H](C(C)C)C3)COC1` [Compound I-7, (S)-6-isopropyl-10-methoxy-9-((3-(methoxymethyl)oxetan-3-yl)methoxy)-2-oxo-6,7-dihydro-2H-pyrido[2,1-α]isoquinoline-3-carboxylic acid]: the negative-log EC50 (pEC50) in data set [1] (setting [3]) was 8.42. Further, the F in data set [2] amounted to 8.1%. In data set [2] (IV 2 mg/kg), the AUC(0-t) was found to be 1180 ng·h/mL, the clearance was found to be 28.8 mL/min/kg, the half-life is 0.67 h and the Vd came to 1.39 L/kg. Besides, in data set [2] (PO 10 mg/kg), the AUC(0-t) is 470 ng·h/mL, the Cmax turned out to be 103 ng/mL, the Tmax was found to be 1 h and the half-life is 1.4 h.
As for `COc1cc2c(cc1C#CC1CC1)C[C@@H](C(C)C)n1cc(C(=O)O)c(=O)cc1-2` [Compound I-11, (S)-9-(cyclopropylethynyl)-6-isopropyl-10-methoxy-2-oxo-6,7-dihydro-2H-pyrido[2,1-α] isoquinoline-3-carboxylic acid], the negative logarithm of the EC50 (pEC50) in data set [1] (setting [3]) was 8.59. This compound yielded a F in data set [2] of 11.5%. Moreover, in data set [2] (IV 2 mg/kg), the AUC(0-t) came to 946 ng·h/mL, the clearance was 35.9 mL/min/kg, the half-life was 0.58 h and the Vd is 1.37 L/kg. In addition, in data set [2] (PO 10 mg/kg), the exposure AUC(0-t) is 461 ng·h/mL, the Cmax was 119 ng/mL, the time to peak (Tmax) was 1.8 h and the half-life is 3.2 h.
Take `COCC1(COc2cc3c(cc2OC)-c2cc(=O)c(C(=O)O)cn2C(C(C)(C)C)C3)CC1` (racemic) [Compound I-30-rac, 6-(tert-butyl)-10-methoxy-9-((1-(methoxymethyl)cyclopropyl)methoxy)-2-oxo-6,7-dihydro-2H-pyrido[2,1-α]isoquinoline-3-carboxylic acid]: the negative logarithm of the EC50 (pEC50) in data set [1] (HepG2.2.15 cells, supernatant on day 8, ELISA) was 8.17.
As for `COCC1(COc2cc3c(cc2Cl)-c2cc(=O)c(C(=O)O)cn2C(C(C)C)C3)COC1` (racemic) [Compound I-25-rac, 10-chloro-6-isopropyl-9-((3-(methoxymethyl)oxetan-3-yl)methoxy)-2-oxo-6,7-dihydro-2H-pyrido[2,1-α]isoquinoline-3-carboxylic acid], in data set [1] (setting [3]), the pEC50 is 8.16.
With `COCCCOc1cc2c(cc1OC)-c1cc(=O)c(C(=O)O)cn1C(C(C)C)C2` (racemic) [A-rac, reference compound], in data set [1] (setting [3]), the pEC50 was 8.09.

The values above are taken from patent US20190381014A1, “ISOQUINOLINONE COMPOUNDS AND USE THEREOF IN PREPARATION OF ANTIVIRAL DRUGS” (Ginkgo Pharma Co., Ltd., priority 2016, published 2019).
